Results reported in US20260042802A1, “POLYPEPTIDE AND USE THEREOF” (priority 2024, published 2026).
Where a SMILES comes first, the peptide text is derived from it. Bridges are numbered along the chain shown (N, C = ends).

Tested on: mouse acetate acid writhing model
Assay: Mouse acetate acid writhing model
Format: in vivo, C57BL/6 mice
Text: Seventy SPF-grade healthy C57BL/6 mice, half male and half female, weighing 22-25 g and 8-10 weeks old, are randomly selected. Seventy C57BL/6 mice are weighed and numbered in ascending order of body weight (No. S1-S70). The mice are randomly divided into seven groups in terms of the randomized numerical table method, which are the saline group and the experimental groups, among which the experimental groups include the PPN-01 group, the PPN-04 group, the PPN-06 group, the PPN-11 group, the PPN-12 group, and the PPN-16 group. The dosing concentration (i.e., the concentration of added polypeptides PPN-01, PPN-04, PPN-06, PPN-11, PPN-12, and PPN-16) in each group is 10 mg/kg, with 10 mice in each group.
Saline Group: 10 healthy mice are routinely reared for one week; the saline is intraperitoneally injected once daily at a concentration of 10 ml/kg for 7 consecutive days; 15 min after the last injection is finished, 0.7% glacial acetic acid (10 ml/kg) is intraperitoneally injected; and each mouse is observed for their writhing behaviors.
Experimental Group: 10 healthy mice are routinely reared for one week; 10 ml/kg of different polypeptides are injected intraperitoneally at a concentration of 0.1 mL/10 g once daily for 7 consecutive days; 15 min after the last injection is finished, 0.7% glacial acetic acid (10 ml/kg) is intraperitoneally injected; and each mouse is observed for their behaviors in writhing.
During the above experiments, the time of first writhing (writhing latency) and the number of writhing in each mouse within 15 min are recorded immediately after the injection of glacial acetic acid solution in each group of mice. When behavioral responses such as inward concavity of the abdomen, extension of the torso and hind limbs, and elevation of the buttocks occur, it is considered to be a complete writhing response, and the results are shown in Table 3 and FIG. 6.
Forty SPF-grade healthy C57BL/6 mice, half male and half female, weighing 22-25 g and 8-10 weeks old, are randomly selected. Forty C57BL/6 mice are weighed and numbered in ascending order of body weight (No. 1 to No. 40). The mice are randomly divided into five groups according to the randomized numerical table method, namely, the saline group, the low-concentration group (2.5 mg/kg), the medium-concentration group (10 mg/kg), the high-concentration group (40 mg/kg), and the diclofenac sodium group (30 mg/kg), with eight mice in each group.
Saline Group: 8 healthy mice are routinely reared for one week; the saline is intraperitoneally injected once daily at a concentration of 10 ml/kg for 7 consecutive days; 15 min after the last injection is finished, 0.7% glacial acetic acid (10 ml/kg) is intraperitoneally injected; and each mouse is observed for their behaviors in writhing. […]

[1] = 10 mg/kg i.p. once daily for 7 days, 0.7% glacial acetic acid 15 min after last injection, 10 mice

## CSCC[C@@H]1NC(=O)CNC(=O)[C@H](CCC(=O)O)NC(=O)[C@@H]2CSSC[C@H](NC(=O)[C@H](Cc3ccc(O)cc3)NC(C)=O)C(=O)N[C@@H](CCC(N)=O)C(=O)N[C@@H](CCCCN)C(=O)N[C@@H](Cc3ccccc3)C(=O)N[C@@H](CC(C)C)C(=O)N[C@@H](C)C(=O)N3CCC[C@H]3C(=O)N[C@H]3CSSC[C@H](NC(=O)[C@H](CCC(=O)O)NC1=O)C(=O)N[C@@H](CCCCN)C(=O)N[C@@H](CC(C)C)C(=O)N[C@@H](Cc1c[nH]c4ccccc14)C(=O)N[C@H](C(=O)N[C@@H](CCCCN)C(=O)N[C@@H](CCCCN)C(=O)N[C@@H](CCCCN)C(=O)N[C@@H](CC(C)C)C(=O)N[C@@H](Cc1c[nH]c4ccccc14)C(N)=O)CSSC[C@H](NC(=O)[C@H](CCCCN)NC(=O)[C@H](CCCNC(=N)N)NC(=O)[C@H](CCC(=O)O)NC(=O)[C@H](CO)NC(=O)[C@H](CC(=O)O)NC3=O)C(=O)N2 [PPN-01] (Ac-YCQKFLAPCDSERKCCEGMECKLWCKKKLW-NH2; disulfide 2-16, 9-21, 15-25)
[1]
  Number of writhing: 14.4 times/15 min
  Time of first writhing: 4.15 min
10 mg/kg i.p., 7 days, compared with saline group
  analgesic effect on the mouse acetate acid writhing model: certain analgesic effect
